The text below walks through data of patent US8410178B2, “CIS 3,4-dihydroxy-2-(3-methylbutanoyl)-5-(3-methylbutyl)-4-(4-methylpentanoyl)cyclopent-2-en-1-derivatives, substantially enantiomerically pure compositions and methods” (KinDex Therapeutics, LLC, priority 2010, dated 2013).

One assay relates to 3T3-L1 adipocytes. Description: Lipogenesis in 3T3-L1 adipocytes (Oil Red O staining). Type of assay: cell-based, Murine. The method, then:
The effect of (+)-KDT501 on lipogenesis was evaluated in 3T3-L1 adipocytes.
Murine 3T3-L1 preadipocytes (ATCC, Rockville, Md.) were maintained in DMEM (Invitrogen, Rockville, Md.) supplemented with 10% fetal bovine serum (FBS; ATCC). As preadipocytes, 3T3-L1 cells have a fibroblastic appearance. They replicate in culture until they form a confluent monolayer, after which cell-cell contact triggers G0/G1 growth arrest. Subsequent stimulation with 3-isobutyl-1-methylxanthane, dexamethasone, and high does of insulin for two days prompts the cells to undergo post-confluent mitotic clonal expansion, exit the cell cycle, and begin to express adipocyte-specific genes. Approximately five days after induction of differentiation, the cells display the characteristic lipid-filled adipocyte phenotype.
Cells were seeded at an initial density of approximately […] in 24-well plates and allowed to grow for 2 days to confluence. […]
Microscopic evaluation was performed at day 0 and every two days throughout testing to assess preadipocyte differentiation to adipocyte morphology. Intracellular lipid was quantified with Oil Red O staining. […] 150 μL of sample was transferred to a 96 well plate and absorbance was measured at 530 nm using a plate reader (Thermo Electron Corp.). […]

The test system of assay [1] is Zucker diabetic fatty (ZDF) rats. Put plainly: Glucose and triglyceride levels in a rat diabetes model. It is filed as in vivo. The method, then: 64 six-week-old male Zucker diabetic fatty (ZDF) rats with glucose levels of 175-300 mg/dL were randomized and divided into eight dosing groups: 1) vehicle only (0.5% methylcellulose (w/v), 0.2% Tween 80 (w/v); negative control), 2) (+)-KDT501 25 mg/kg, 3) (+)-KDT501 50 mg/kg, 4) (+)-KDT501 100 mg/kg, 5) (+)-KDT501 200 mg/kg, 6) metformin 200 mg/kg (positive control), 7) metformin 200 mg/kg and (+)-KDT501 100 mg/kg, and 8) pioglitazone 30 mg/kg (positive control). Drugs were administered orally twice a day for 33 days.
Animals were weighed at randomization and once per week thereafter, with administration dosages calculated based on the most recent body weight measurements. Blood samples were collected by tail bleed three days prior to randomization, at randomization, and at days 15 and 29 after the start of treatment. These blood samples were used to perform whole blood glucose evaluations using a glucometer, as well as to measure blood triglyceride levels. Body composition was tested by qNMR on days 2 and 29 after the start of treatment. An oral glucose tolerance test (OGTT) was performed on days 31 and 32 after the start of treatment. Rats underwent an overnight fast prior to OGTT, and tail bleeds for glucose and insulin were performed pre-glucose bolus and at 15, 30, 60, 90, and 120 minutes post-glucose bolus. The glucose bolus was 2 g dextrose/kg of body weight. On day 33, a cardiac puncture was performed for PK analysis.

Assay [2] has as its target T1, peroxisome proliferator-activated receptor gamma (PPARγ) (Homo sapiens, UniProt P37231).
T1 sequence (P37231 1-505): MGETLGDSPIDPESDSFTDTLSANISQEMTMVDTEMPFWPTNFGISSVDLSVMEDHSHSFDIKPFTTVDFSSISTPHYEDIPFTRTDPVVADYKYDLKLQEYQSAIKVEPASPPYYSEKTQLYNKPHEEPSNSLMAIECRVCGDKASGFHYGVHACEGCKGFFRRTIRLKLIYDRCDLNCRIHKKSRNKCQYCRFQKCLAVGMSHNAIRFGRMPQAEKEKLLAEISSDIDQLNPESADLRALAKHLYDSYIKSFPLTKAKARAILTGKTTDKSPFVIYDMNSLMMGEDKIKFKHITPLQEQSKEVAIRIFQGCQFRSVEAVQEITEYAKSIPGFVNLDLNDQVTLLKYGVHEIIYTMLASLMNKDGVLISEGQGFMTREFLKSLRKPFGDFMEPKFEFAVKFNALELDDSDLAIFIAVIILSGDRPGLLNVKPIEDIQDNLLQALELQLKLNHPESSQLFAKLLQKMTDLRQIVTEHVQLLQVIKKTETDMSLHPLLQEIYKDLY
Description: Competitive binding to PPARγ ([3H]rosiglitazone).

In assay [3] the target is T2, angiotensin II receptor type II (AGTR2) (Homo sapiens, UniProt P50052).
T2 sequence (P50052 1-363): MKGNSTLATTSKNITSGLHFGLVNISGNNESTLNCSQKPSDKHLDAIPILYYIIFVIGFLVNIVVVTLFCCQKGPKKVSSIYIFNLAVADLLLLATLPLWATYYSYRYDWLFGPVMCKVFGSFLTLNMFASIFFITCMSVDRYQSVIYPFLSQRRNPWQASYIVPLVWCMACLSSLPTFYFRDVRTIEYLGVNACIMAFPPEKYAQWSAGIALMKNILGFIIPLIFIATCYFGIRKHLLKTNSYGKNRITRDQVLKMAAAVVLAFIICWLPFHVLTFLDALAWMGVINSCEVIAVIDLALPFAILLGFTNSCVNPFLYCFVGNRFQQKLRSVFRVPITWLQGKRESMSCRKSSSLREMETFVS
Description: Competitive binding to AGTR2 ([125I]CGP 42112A). The following applies: binding target AGTR2; competitor ligand Angiotensin-II.

A word on the IC50: it is the concentration that gives 50% inhibition. As usually defined, the Ki is a measure of affinity in units of concentration, obtained from inhibition or displacement.

For the molecule `CC(C)CCC(=O)[C@@]1(O)C(O)=C(C(=O)CC(C)C)C(=O)[C@@H]1CCC(C)C.[K]` [(+)-KDT501, (+)-(4S,5R)-3,4-dihydroxy-2-(3-methylbutanoyl)-5-(3-methylbutyl)-4-(4-methylpentanoyl)cyclopent-2-en-1-one potassium salt], the “lipogenesis (intracellular lipid, Oil Red O)” value with 3T3-L1 adipocytes (3T3-L1 adipocytes, 6.25, 12.5, and 25 μM) was “increased lipogenesis in 3T3-L1 adipocytes in a statistically significant manner”. For the same molecule, the adipogenesis result with 3T3-L1 adipocytes (3T3-L1 murine fibroblast model) is “induce both lipogenesis and adipogenesis in a dose-dependent manner”. The “whole blood glucose levels” value in assay [1] (200 mg/kg orally twice a day) is given as “significant decrease”; in assay [1] (25, 50, or 100 mg/kg orally twice a day) it was “nearly the same as those observed in negative control rats”. In addition, in assay [1] (200 mg/kg orally twice a day, days 15 and 29), the triglyceride levels entry was “significant decrease”. The IC50 in assay [2] is 8.4 µM; in assay [3], 14 µM. Moreover, the Ki turned out to be 4.5 µM in assay [2] and 7.1 µM in assay [3]. Besides, the nH in assay [2] (binding target PPARγ, competitor ligand Rosiglitazone) came to 1.1; in assay [3], 1.4.
